The values that follow come from US20130216585A1, “COMPOSITION AND METHODS FOR QUENCHING FREE RADICALS AND MODULATING INFLAMMATION” (FLAVITPURE, INC., priority 2012, published 2013).

For data set [1] the following is noted: clinical feedback, usually females; cited from earlier work.
The next data set concerns bacterial mutagenicity. As to conditions: bacterial mutagenicity tests, cited from earlier work.
Data set [2] is described as follows: ORAChydro (Oxygen Radical Absorbance Capacity) assay. It is filed as physicochemical. From the text: (§1) Dihydroquercetin is a:far more powerful antioxidant than vitamins A, C and E, as indicated by its comparative USDA ranking of the Oxygen Radical Absorbance Capacity (ORAC) and supported by other additional studies such as Cell-based Antioxidant Protection (CAP-e) assay against peroxyl radical, which is used to test whether natural products contain antioxidants capable of entering into and protecting live cells from oxidative damage.
(§2) The majority of HAT-based assays apply a competitive reaction scheme, in which antioxidant and substrate compete for thermally generated peroxyl radicals through the decomposition of azo compounds. ORAC and CAP-e can also be applied as an assays for the inhibition of induced low-density lipoprotein oxidation and other oxygen radical absorbances. […]
(§3) Among all the HAT-based assays, ORAC and CAP-e adopted an AUC (area under curve) technique to quantify antioxidant capacity. […]
(§4) Therefore, the ORAC and CAP-e assays has been broadly applied in academics and the food and supplement industry as the method of choice to quantify antioxidant capacity. […] The ORAChydro value of our dihydroquercetin has been measured at is 3,890 micromole of Trolox equivalent per […] capsule or 28,000 micromole Trolox equivalent per gram. The CAP-e value of our dihydroquercetin has been measured at is 9.9 CAP-e units per gram.

The next data set relates to peroxyl radical. The data set is described as follows: Cell-based Antioxidant Protection (CAP-e) assay. The settings on record: per gram.
Text: as §1, §2, §3, §4

The subject of data set [3] is 8-hydroxy-2′-deoxyguanosine. As to conditions: Fenton reaction catalyzed by copper; cited from earlier work.
Data set [4] concerns human lung embryonic fibroblasts (TIG-1). As to conditions: TIG-1 cells; cited from earlier work.
For data set [5], the system named is umbilical vein endothelial (HUVE) cells. As to conditions: cited from earlier work.

As for Larch Arabinogalactan, the “occasional reaction of bloating and flatulence, share of individuals” value in data set [1] is reported as “less than three percent”.

As to `O=c1c(O)c(-c2ccc(O)c(O)c2)oc2cc(O)cc(O)c12` [quercetin, reference compound], the minimum mutagenic dose in the data set on bacterial mutagenicity is 4 nml.

Regarding `O=C1c2c(O)cc(O)cc2O[C@H](c2ccc(O)c(O)c2)[C@H]1O` [Dihydroquercetin], the ORAChydro value in data set [2] (per 412.3 mg capsule) was 3,890 micromole of Trolox equivalent per 412.3 mg capsule; in data set [2] (per gram), 28,000 micromole Trolox equivalent per gram. The CAP-e value in the data set on peroxyl radical worked out at 9.9 CAP-e units per gram. Besides, the “times less mutagenic than quercetin” value in the data set with bacterial mutagenicity (relative to quercetin) is 400 times. Also, in the data set on bacterial mutagenicity, the minimum mutagenic dose is reported as 1626 nmol. Moreover, the pro-oxidant activity result in data set [3] was “did not present pro-oxidant activity”. For the same compound, the 50% lethal concentration in data set [4] is more than 300 µmol; in data set [5] it was more than 200 µmol.

Take catechin [reference compound]: the pro-oxidant activity entry in data set [3] is reported as “did not present pro-oxidant activity”.
